# Results as given in patent US20170334899A1, “AMINO-SUBSTITUTED ISOTHIAZOLES” (Bayer Pharma Aktiengesellschaft, priority 2014, published 2017).
# Target: T1, catalytic domain of human Bub1 (amino acids 704-1085) (Homo sapiens, UniProt O43683)
# T1 construct: catalytic domain of human Bub1 (amino acids 704-1085); His6 (N); made in house; host or cells: insect cells (Hi5)
# Experiment: Bub1 kinase assay (TR-FRET)
# Type: biochemical
# Details: 10 μM ATP, avg, read-out: Bub1 avg (IC50 [mol/l])
# Summary of the method: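 Readout is the 665/620 nm TR-FRET ratio from anti-phosphoserine antibody, Eu-labelled anti-mouse IgG and streptavidin-XL665, scaled between no-enzyme and uninhibited controls. Reaction: 1 μM biotinylated peptide, 10 μM ATP, 60 min, 22 °C, after 15 min compound preincubation with His6-Bub1 (704-1085, insect-expressed, ~200 ng/ml).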
# T1 sequence (O43683 704-1085): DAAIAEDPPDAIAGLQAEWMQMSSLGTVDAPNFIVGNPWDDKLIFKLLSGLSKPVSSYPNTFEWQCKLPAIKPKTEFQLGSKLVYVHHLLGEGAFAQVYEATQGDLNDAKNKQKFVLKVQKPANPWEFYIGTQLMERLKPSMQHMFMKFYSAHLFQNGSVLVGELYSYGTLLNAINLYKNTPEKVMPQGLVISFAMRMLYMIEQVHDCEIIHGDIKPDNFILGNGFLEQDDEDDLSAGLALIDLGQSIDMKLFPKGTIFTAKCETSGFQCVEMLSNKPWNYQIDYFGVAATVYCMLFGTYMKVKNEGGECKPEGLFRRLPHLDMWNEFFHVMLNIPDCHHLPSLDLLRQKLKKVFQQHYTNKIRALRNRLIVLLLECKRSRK
row,SMILES,IC50 [µM]
1,"Cc1nsc(Nc2ccc(C#N)cn2)c1C(=O)Nc1ccc(OC2CCN(CC(F)(F)F)CC2)nc1 [Example 30, 5-[(5-Cyanopyridin-2-yl)amino]-3-methyl-N-(6-{[1-(2,2,2-trifluoroethyl)piperidin-4-yl]oxy}pyridin-3-yl)-1,2-thiazole-4-carboxamide]",≥ 20
2,"Cc1nsc(Nc2cnc(C(F)(F)F)cn2)c1C(=O)Nc1ccc(F)c(OC[C@@H]2CCN(CC(F)(F)F)C2)c1 [Example 339, N-(4-fluoro-3-{[(3R)-1-(2,2,2-trifluoroethyl)pyrrolidin-3-yl]methoxy}phenyl)-3-methyl-5-{[5-(trifluoromethyl)pyrazin-2-yl]amino}-1,2-thiazole-4-carboxamide]",> 20
3,"Cc1nsc(Nc2cnc(C(F)(F)F)cn2)c1C(=O)Nc1ccc(O[C@H]2CCN(CC(F)F)C2)nc1 [Example 382, N-(6-{[(3S)-1-(2,2-difluoroethyl)pyrrolidin-3-yl]oxy}pyridin-3-yl)-3-methyl-5-{[5-(trifluoromethyl)pyrazin-2-yl]amino}-1,2-thiazole-4-carboxamide]",> 20
4,"Cc1nsc(Nc2cnc(C(F)(F)F)cn2)c1C(=O)Nc1ccc(OCC2CCN(CC(F)(F)F)CC2(F)F)nc1 (stereo not drawn) [Example 392, N-(6-{[3,3-difluoro-1-(2,2,2-trifluoroethyl)piperidin-4-yl]methoxy}pyridin-3-yl)-3-methyl-5-{[5-(trifluoromethyl)pyrazin-2-yl]amino}-1,2-thiazole-4-carboxamide]",> 20
5,"Cc1nsc(Nc2cncc(C(F)(F)F)n2)c1C(=O)Nc1ccc(F)c(OC2CCN(CCC(F)(F)F)CC2)c1 [Example 343, N-(4-fluoro-3-{[1-(3,3,3-trifluoropropyl)piperidin-4-yl]oxy}phenyl)-3-methyl-5-{[6-(trifluoromethyl)pyrazin-2-yl]amino}-1,2-thiazole-4-carboxamide]",≥ 20
6,"Cc1nsc(Nc2cnc(C(F)(F)F)cn2)c1C(=O)Nc1ccc(OC2CCCN(CCF)C2)nc1 (stereo not drawn) [Example 329, N-(6-{[1-(2-fluoroethyl)piperidin-3-yl]oxy}pyridin-3-yl)-3-methyl-5-{[5-(trifluoromethyl)pyrazin-2-yl]amino}-1,2-thiazole-4-carboxamide]",≥ 20
7,"Cc1nsc(Nc2cnc(C(F)(F)F)cn2)c1C(=O)Nc1ccc(F)c(OCC2CCCN(CCF)C2)c1 (stereo not drawn) [Example 336, N-(4-fluoro-3-{[1-(2-fluoroethyl)piperidin-3-yl]methoxy}phenyl)-3-methyl-5-{[5-(trifluoromethyl)pyrazin-2-yl]amino}-1,2-thiazole-4-carboxamide]",≥ 20

# The remaining lines, values ahead:
row,IC50 [µM],SMILES
1,> 20,"Cc1nsc(Nc2cnc(C(F)(F)F)cn2)c1C(=O)Nc1ccc(OC[C@@H]2CCCN(CC(F)(F)F)C2)nc1 [Example 376, 3-methyl-N-(6-{[(3R)-1-(2,2,2-trifluoroethyl)piperidin-3-yl]methoxy}pyridin-3-yl)-5-{[5-(trifluoromethyl)pyrazin-2-yl]amino}-1,2-thiazole-4-carboxamide]"
2,≥ 20,"Cc1nsc(Nc2cnc(C(F)(F)F)cn2)c1C(=O)Nc1ccc(OCC2CCCN(CCC(F)(F)F)C2)nc1 (stereo not drawn) [Example 328, 3-methyl-5-{[5-(trifluoromethyl)pyrazin-2-yl]amino}-N-(6-{[1-(3,3,3-trifluoropropyl)piperidin-3-yl]methoxy}pyridin-3-yl)-1,2-thiazole-4-carboxamide]"
3,≥ 20,"Cc1nsc(Nc2cnc(C(F)(F)F)cn2)c1C(=O)Nc1ccc(OC2CCCN(CC(F)(F)F)C2)nc1 (stereo not drawn) [Example 331, 3-methyl-N-(6-{[1-(2,2,2-trifluoroethyl)piperidin-3-yl]oxy}pyridin-3-yl)-5-{[5-(trifluoromethyl)pyrazin-2-yl]amino}-1,2-thiazole-4-carboxamide]"
4,> 20,"Cc1nsc(Nc2cnc(C(F)(F)F)cn2)c1C(=O)Nc1ccc(O[C@H]2CCN(CCC(F)(F)F)C[C@@H]2F)nc1 [Example 364, N-(6-{[(3S,4S)-3-fluoro-1-(3,3,3-trifluoropropyl)piperidin-4-yl]oxy}pyridin-3-yl)-3-methyl-5-{[5-(trifluoromethyl)pyrazin-2-yl]amino}-1,2-thiazole-4-carboxamide]"
5,> 20,"Cc1nsc(Nc2cnc(C(F)(F)F)cn2)c1C(=O)Nc1ccc(OC[C@@H]2CCCN(CCC(F)(F)F)C2)nc1 [Example 377, 3-methyl-5-{[5-(trifluoromethyl)pyrazin-2-yl]amino}-N-(6-{[(3R)-1-(3,3,3-trifluoropropyl)piperidin-3-yl]methoxy}pyridin-3-yl)-1,2-thiazole-4-carboxamide]"
6,> 20,"Cc1nsc(Nc2cnc(C(F)(F)F)cn2)c1C(=O)Nc1ccc(N2CCN(CCC(F)(F)F)CC2)nc1 [Example 361, 3-methyl-5-{[5-(trifluoromethyl)pyrazin-2-yl]amino}-N-{6-[4-(3,3,3-trifluoropropyl)piperazin-1-yl]pyridin-3-yl}-1,2-thiazole-4-carboxamide]"
7,> 20,"Cc1nsc(Nc2cnc(C(F)(F)F)cn2)c1C(=O)Nc1ccc(N2CCN(CCC(F)(F)F)CC2)cn1 [Example 374, 3-methyl-5-{[5-(trifluoromethyl)pyrazin-2-yl]amino}-N-{5-[4-(3,3,3-trifluoropropyl)piperazin-1-yl]pyridin-2-yl}-1,2-thiazole-4-carboxamide]"
8,> 20,"Cc1nsc(Nc2cnc(C(F)(F)F)cn2)c1C(=O)Nc1ccc(O[C@@H]2CCN(CC(F)(F)F)C2)nc1 [Example 380, 3-methyl-N-(6-{[(3R)-1-(2,2,2-trifluoroethyl)pyrrolidin-3-yl]oxy}pyridin-3-yl)-5-{[5-(trifluoromethyl)pyrazin-2-yl]amino}-1,2-thiazole-4-carboxamide]"
